# Data from patent US12030904B2 (priority 2020, dated 2024).
# Where two headings read alike, the source gives them in different places.
# Legend:
# [1] = tested on: Recombinant Respiratory Syncytial virus strain A2 containing the firefly luciferase reporter (RSV-Fluc); experiment: microbe, parasite or virus in culture; format: cell-based; settings: human respiratory syncytial virus, NHBE
# [2] = tested on: SARS-CoV-2; experiment: microbe, parasite or virus in culture; format: cell-based
# [3] = MT4 cytotoxicity (CC50); settings: human, MT4 cells
# [4] = Severe acute respiratory syndrome coronavirus 2, read-out: SARS EC50
# [5] = 72 h, read-out: RSV-Fluc EC50 (NHBE), NHBE cells, three days, Table 2
SMILES,"EC50 ([1]; read-out: RSV EC50, Table 4) [µM]","EC50 [2, 4] [µM]","CC50 ([3]; MT4 CC50, Table 4) [µM]",other results
"CCCCCCCCCCCCCCCCCCOC[C@H](COP(=O)(O)OC[C@H]1O[C@@](C#N)(c2ccc3c(N)ncnn23)[C@H](O)[C@@H]1O)Oc1cnc(C#N)nc1 [Example 82, ((2R,3S,4R,5R)-5-(4-aminopyrrolo[2,1-f][1,2,4]triazin-7-yl)-5-cyano-3,4-dihydroxytetrahydrofuran-2-yl)methyl ((R)-2-((2-cyanopyrimidin-5-yl)oxy)-3-(octadecyloxy)propyl) hydrogen phosphate]",0.01,0.12,0.324,–
"CCCCCCCCCCCCCCCCCCOC[C@H](COP(=O)(O)OC[C@H]1O[C@@](C#N)(c2ccc3c(N)ncnn23)[C@H](O)[C@@H]1O)Oc1ccc(C#N)nn1 [Example 80, ((2R,3S,4R,5R)-5-(4-aminopyrrolo[2,1-f][1,2,4]triazin-7-yl)-5-cyano-3,4-dihydroxytetrahydrofuran-2-yl)methyl ((R)-2-((6-cyanopyridazin-3-yl)oxy)-3-(octadecyloxy)propyl) hydrogen phosphate]",0.013,0.054,0.344,–
"CCCCCCCC/C=C\CCCCCCCCOC[C@H](COP(=O)(O)OC[C@H]1O[C@@](C#N)(c2ccc3c(N)ncnn23)[C@H](O)[C@@H]1O)OCc1ccc(C#N)cc1F [Example 129, ((2R,3S,4R,5R)-5-(4-aminopyrrolo[2,1-f][1,2,4]triazin-7-yl)-5-cyano-3,4-dihydroxytetrahydrofuran-2-yl)methyl ((R)-2-((4-cyano-2-fluorobenzyl)oxy)-3-(((Z)-octadec-9-en-1-yl)oxy)propyl) hydrogen phosphate]",0.022,0.11,2.43,–
"CCCCCCCCCCCCCCCCCCOC[C@H](COP(=O)(O)OC[C@H]1O[C@@](C#N)(c2ccc3c(N)ncnn23)[C@H](O)[C@@H]1O)OCc1cc(C#N)cc(OC)c1 [Example 106, [(2R,3S,4R,5R)-5-(4-Aminopyrrolo[2,1-f][1,2,4]triazin-7-yl)-5-cyano-3,4-dihydroxy-tetrahydrofuran-2-yl]methyl [(2R)-2-[(3-cyano-5-methoxy-phenyl)methoxy]-3-octadecoxy-propyl] hydrogen phosphate]",0.088,10,0.871,–
"CCCCCCCCCCCCCCCCCCOC[C@H](COP(=O)(O)OC[C@H]1O[C@@](C#N)(c2ccc3c(N)ncnn23)[C@H](O)[C@@H]1O)OCc1cnc(C(F)(F)F)nc1 [Example 122, [(2R,3S,4R,5R)-5-(4-Aminopyrrolo[2,1-f][1,2,4]triazin-7-yl)-5-cyano-3,4-dihydroxy-tetrahydrofuran-2-yl]methyl [(2R)-3-octadecoxy-2-[[2-(trifluoromethyl)pyrimidin-5-yl]methoxy]propyl] hydrogen phosphate]",0.039,0.45,0.995,–
"CCCCCCCCCCCCCCCCCCOC[C@H](COP(=O)(O)OC[C@H]1O[C@@](C#N)(c2ccc3c(N)ncnn23)[C@H](O)[C@@H]1O)OCc1ccc(C#N)cc1OC [Example 114, [(2R,3S,4R,5R)-5-(4-Aminopyrrolo[2,1-f][1,2,4]triazin-7-yl)-5-cyano-3,4-dihydroxy-tetrahydrofuran-2-yl]methyl [(2R)-2-[(4-cyano-2-methoxy-phenyl)methoxy]-3-octadecoxy-propyl] hydrogen phosphate]",0.093,0.48,1.88,–
"CCCCCCCCCCCCCCCCCCOC[C@H](COP(=O)(O)OC[C@H]1O[C@@](C#N)(c2ccc3c(N)ncnn23)[C@H](O)[C@@H]1O)OC [Example 44, ((2R,3S,4R,5R)-5-(4-aminopyrrolo[2,1-f][1,2,4]triazin-7-yl)-5-cyano-3,4-dihydroxytetrahydrofuran-2-yl)methyl ((R)-2-methoxy-3-(octadecyloxy)propyl) hydrogen phosphate]",–,0.917,–,"EC50 [1, 5]: 0.053 µM; EC50 ([1]; read-out: RSV EC50, Table 2a): 0.053 µM; CC50 ([3]; MT4 CC50, Table 2a): 4 µM"
"CCCCCCCCCCCCCCCCOC[C@H](COP(=O)(O)OC[C@H]1O[C@@](C#N)(c2ccc3c(N)ncnn23)[C@H](O)[C@@H]1O)OCc1ccc(C#N)cc1F [Example 112, [(2R,3S,4R,5R)-5-(4-Aminopyrrolo[2,1-f][1,2,4]triazin-7-yl)-5-cyano-3,4-dihydroxy-tetrahydrofuran-2-yl]methyl [(2R)-2-[(4-cyano-2-fluoro-phenyl)methoxy]-3-hexadecoxy-propyl] hydrogen phosphate]",0.063,0.13,1.94,–
"CCCCCCCCCCCCCCCCCCOC[C@H](COP(=O)(O)OC[C@H]1O[C@@](C#N)(c2ccc3c(N)ncnn23)[C@H](O)[C@@H]1O)OCc1ccccc1F [Example 42, ((2R,3S,4R,5R)-5-(4-aminopyrrolo[2,1-f][1,2,4]triazin-7-yl)-5-cyano-3,4-dihydroxytetrahydrofuran-2-yl)methyl ((R)-2-((2-fluorobenzyl)oxy)-3-(octadecyloxy)propyl) hydrogen phosphate]",–,0.593,–,"EC50 [1, 5]: 0.035 µM; EC50 ([1]; read-out: RSV EC50, Table 2a): 0.036 µM; CC50 ([3]; MT4 CC50, Table 2a): 2.23 µM"
"CCCCCCCCCCCCCCCCCOC[C@H](COP(=O)(O)OC[C@H]1O[C@@](C#N)(c2ccc3c(N)ncnn23)[C@H](O)[C@@H]1O)OCc1ccc(C#N)c(F)c1 [Example 94, ((2R,3S,4R,5R)-5-(4-aminopyrrolo[2,1-f][1,2,4]triazin-7-yl)-5-cyano-3,4-dihydroxytetrahydrofuran-2-yl)methyl ((R)-2-((4-cyano-3-fluorobenzyl)oxy)-3-(heptadecyloxy)propyl) hydrogen phosphate]",0.038,0.038,0.273,–
CCCCCCCCCCCCCCCCCCOC[C@H](COP(=O)(O)OC[C@H]1O[C@@](C#N)(c2ccc3c(N)ncnn23)[C@H](O)[C@@H]1O)OCc1ccc(F)c(Cl)c1 [Example 17],–,–,–,"EC50 ([1]; 72 h, read-out: RSV-Fluc EC50 (NHBE), NHBE cells, three days, Table 1): 0.02 µM; EC50 ([2]; Severe acute respiratory syndrome coronavirus 2, 48 h, read-out: SARS-CoV-2 EC50): 0.69 µM; CC50 ([3]; MT4 CC50, Table 1a): 2.1 µM"
"CCCCCCCC/C=C/CCCCCCCCOC[C@H](COP(=O)(O)OC[C@H]1O[C@@](C#N)(c2ccc3c(N)ncnn23)[C@H](O)[C@@H]1O)OCc1ccccc1 [Example 131, ((2R,3S,4R,5R)-5-(4-aminopyrrolo[2,1-f][1,2,4]triazin-7-yl)-5-cyano-3,4-dihydroxytetrahydrofuran-2-yl)methyl ((R)-2-(benzyloxy)-3-(((E)-octadec-9-en-1-yl)oxy)propyl) hydrogen phosphate]",0.039,0.11,3.39,–
"CCCCCCCCCCCCCCCCCCOC[C@H](COP(=O)(O)OC[C@H]1O[C@@](C#N)(c2ccc3c(N)ncnn23)[C@H](O)[C@@H]1O)OCc1cncc(C#N)c1 [Example 75, ((2R,3S,4R,5R)-5-(4-aminopyrrolo[2,1-f][1,2,4]triazin-7-yl)-5-cyano-3,4-dihydroxytetrahydrofuran-2-yl)methyl ((R)-2-((5-cyanopyridin-3-yl)methoxy)-3-(octadecyloxy)propyl) hydrogen phosphate]",0.072,0.028,0.195,–
"CCCCCCCCCCCCCCCCOC[C@H](COP(=O)(O)OC[C@H]1O[C@@](C#N)(c2ccc3c(N)ncnn23)[C@H](O)[C@@H]1O)OCc1ccc(OC)cc1 [Example 97, ((2R,3S,4R,5R)-5-(4-aminopyrrolo[2,1-f][1,2,4]triazin-7-yl)-5-cyano-3,4-dihydroxytetrahydrofuran-2-yl)methyl ((R)-3-(hexadecyloxy)-2-((4-methoxybenzyl)oxy)propyl) hydrogen phosphate]",0.04,0.099,0.652,–
